Measured values published in ChEMBL document CHEMBL4610129, “Discovery of Novel Selective and Orally Bioavailable Phosphodiesterase-1 Inhibitors for the Efficient Treatment of Idiopathic Pulmonary Fibrosis” (J Med Chem, 2020).
Active and inactive are the calls of the source. The rule behind the calls is not given here.

Key:
[1] = molecular target: T1, Dual specificity calcium/calmodulin-dependent 3',5'-cyclic nucleotide phosphodiesterase 1C (Homo sapiens, UniProt Q14123); assay: Inhibition of PDE1C2 (147 to 531 residues) (unknown origin) using [3H]-cGMP substrate incubated for 15 mins by liquid scintillation counting method
[2] = Half life in rat liver microsomes; format: ADME, Microsome
Rattus norvegicus [3] = assay: Anti-pulmonary fibrosis activity in Sprague-Dawley rat model of BLM-induced idiopathic pulmonary fibrosis assessed as reduction in peak expiratory flow at 150 mg/kg, po dosed daily for 28 days by mka noninvasive pulmonary monitoring system based method; format: functional, organism-based
Rattus norvegicus [4] = assay: Anti-pulmonary fibrosis activity in Sprague-Dawley rat model of BLM-induced idiopathic pulmonary fibrosis assessed as reduction in end-inspiratory pause at 150 mg/kg, po dosed daily for 28 days by mka noninvasive pulmonary monitoring system based method; format: functional, organism-based
Rattus norvegicus [5] = assay: Anti-pulmonary fibrosis activity in Sprague-Dawley rat model of BLM-induced idiopathic pulmonary fibrosis assessed as reduction in peak inspiratory flow at 150 mg/kg, po dosed daily for 28 days by mka noninvasive pulmonary monitoring system based method; format: functional, organism-based
Rattus norvegicus [6] = assay: Anti-pulmonary fibrosis activity in Sprague-Dawley rat model of BLM-induced idiopathic pulmonary fibrosis assessed as reduction in mid-expiratory flow at 150 mg/kg, po dosed daily for 28 days by mka noninvasive pulmonary monitoring system based method; format: functional, organism-based
Rattus norvegicus [7] = assay: Anti-pulmonary fibrosis activity in Sprague-Dawley rat model of BLM-induced idiopathic pulmonary fibrosis assessed as reduction in end-expiratory pause at 150 mg/kg, po dosed daily for 28 days by mka noninvasive pulmonary monitoring system based method; format: functional, organism-based
Rattus norvegicus [8] = assay: Anti-pulmonary fibrosis activity in Sprague-Dawley rat model of BLM-induced idiopathic pulmonary fibrosis assessed as inhibition of collagen deposition at 150 mg/kg, po dosed daily for 28 days by Masson staining based assay; format: functional, organism-based
Rattus norvegicus [9] = assay: Anti-pulmonary fibrosis activity in Sprague-Dawley rat model of BLM-induced idiopathic pulmonary fibrosis assessed as reduction in enhanced pause at 150 mg/kg, po dosed daily for 28 days by mka noninvasive pulmonary monitoring system based method; format: functional, organism-based
Rattus norvegicus [10] = assay: Anti-pulmonary fibrosis activity in Sprague-Dawley rat model of BLM-induced idiopathic pulmonary fibrosis assessed as reduction in lung structural damage at 150 mg/kg, po dosed daily for 28 days by H and E staining based assay; format: functional, organism-based
[11] = molecular target: T1, Dual specificity calcium/calmodulin-dependent 3',5'-cyclic nucleotide phosphodiesterase 1C; assay: Inhibition of PDE1C2 (147 to 531 residues) (unknown origin) at 100 nM using [3H]-cGMP substrate incubated for 15 mins by liquid scintillation counting method relative to control
[12] = molecular target: Dual specificity calcium/calmodulin-dependent 3',5'-cyclic nucleotide phosphodiesterase 1B (Homo sapiens, UniProt Q01064); assay: Inhibition of PDE1B (146 to 506 residues) (unknown origin) using [3H]-cGMP substrate incubated for 15 mins by liquid scintillation counting method
[13] = molecular target: High affinity cGMP-specific 3',5'-cyclic phosphodiesterase 9A (Homo sapiens, UniProt O76083); assay: Inhibition of PDE9A (181 to 506 residues) (unknown origin) using [3H]-cGMP substrate incubated for 15 mins by liquid scintillation counting method
Sequence of High affinity cGMP-specific 3',5'-cyclic phosphodiesterase 9A (O76083 whole entry, the tested form may be a part): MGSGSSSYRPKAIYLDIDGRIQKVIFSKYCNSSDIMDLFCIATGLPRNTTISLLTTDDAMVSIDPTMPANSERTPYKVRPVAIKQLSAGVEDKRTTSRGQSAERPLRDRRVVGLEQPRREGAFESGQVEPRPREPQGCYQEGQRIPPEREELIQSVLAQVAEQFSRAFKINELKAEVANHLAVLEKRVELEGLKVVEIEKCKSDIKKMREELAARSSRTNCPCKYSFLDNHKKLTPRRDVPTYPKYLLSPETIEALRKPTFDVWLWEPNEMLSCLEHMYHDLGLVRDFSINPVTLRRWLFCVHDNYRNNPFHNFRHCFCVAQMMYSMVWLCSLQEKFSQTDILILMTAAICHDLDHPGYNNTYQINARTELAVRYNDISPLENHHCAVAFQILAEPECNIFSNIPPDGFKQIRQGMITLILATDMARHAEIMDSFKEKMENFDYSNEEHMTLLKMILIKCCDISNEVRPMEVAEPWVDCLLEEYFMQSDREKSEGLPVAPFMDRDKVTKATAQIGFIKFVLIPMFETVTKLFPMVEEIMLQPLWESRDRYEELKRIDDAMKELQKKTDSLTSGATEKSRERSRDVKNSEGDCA

T1 sequence (Q14123 whole entry, the tested form may be a part): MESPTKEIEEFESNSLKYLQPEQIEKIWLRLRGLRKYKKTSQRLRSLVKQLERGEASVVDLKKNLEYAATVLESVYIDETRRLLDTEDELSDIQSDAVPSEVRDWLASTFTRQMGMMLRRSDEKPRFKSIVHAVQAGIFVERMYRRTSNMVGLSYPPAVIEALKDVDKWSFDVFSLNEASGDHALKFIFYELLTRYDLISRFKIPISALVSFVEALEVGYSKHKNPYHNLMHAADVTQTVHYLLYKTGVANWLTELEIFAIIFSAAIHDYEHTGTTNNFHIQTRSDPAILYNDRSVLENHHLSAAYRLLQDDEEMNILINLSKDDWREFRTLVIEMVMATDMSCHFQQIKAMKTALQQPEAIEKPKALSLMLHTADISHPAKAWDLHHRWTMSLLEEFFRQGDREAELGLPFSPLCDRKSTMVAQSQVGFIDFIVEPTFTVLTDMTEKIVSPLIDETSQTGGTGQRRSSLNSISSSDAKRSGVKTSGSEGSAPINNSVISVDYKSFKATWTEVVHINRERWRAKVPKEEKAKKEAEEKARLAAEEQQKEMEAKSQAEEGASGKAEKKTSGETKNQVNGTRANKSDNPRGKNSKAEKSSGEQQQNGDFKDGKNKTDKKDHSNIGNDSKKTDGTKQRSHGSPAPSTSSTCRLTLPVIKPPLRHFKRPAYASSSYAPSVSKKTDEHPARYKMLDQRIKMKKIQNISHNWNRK
Sequence of Dual specificity calcium/calmodulin-dependent 3',5'-cyclic nucleotide phosphodiesterase 1B (Q01064 whole entry, the tested form may be a part): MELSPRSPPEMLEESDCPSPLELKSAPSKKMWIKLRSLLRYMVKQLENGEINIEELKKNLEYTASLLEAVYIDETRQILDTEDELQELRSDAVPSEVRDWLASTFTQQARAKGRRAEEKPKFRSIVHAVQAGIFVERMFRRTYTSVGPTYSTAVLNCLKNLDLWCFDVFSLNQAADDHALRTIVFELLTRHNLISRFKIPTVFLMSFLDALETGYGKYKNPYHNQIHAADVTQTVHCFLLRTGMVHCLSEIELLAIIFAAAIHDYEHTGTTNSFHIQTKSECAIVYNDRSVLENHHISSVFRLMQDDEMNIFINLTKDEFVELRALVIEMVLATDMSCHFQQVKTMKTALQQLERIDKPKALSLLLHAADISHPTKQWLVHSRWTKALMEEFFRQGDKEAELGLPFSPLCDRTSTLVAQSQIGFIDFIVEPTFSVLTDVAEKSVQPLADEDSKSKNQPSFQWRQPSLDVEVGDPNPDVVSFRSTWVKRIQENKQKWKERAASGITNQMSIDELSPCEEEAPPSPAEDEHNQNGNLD

| SMILES | IC50 [1] | half-life [2] | inhibition [11] | further results |
| --- | --- | --- | --- | --- |
| C[C@@H](Nc1nc2c(cnn2C(C)(C)C)c(=O)n1C)c1ccc(Cl)cc1 | 65 nM |  |  |  |
| CC(C)n1ncc2c(=O)n(Cc3ccccc3)c(N[C@H](C)c3ccc(Cl)cc3)nc21 | 0.9 nM | 2.4 min |  |  |
| CC(C)n1ncc2c(=O)n(C)c(N[C@H](C)c3ccc(Cl)cc3)nc21 | 57 nM | 2.2 min |  |  |
| C[C@@H](Nc1nc2c(cnn2C(C)(C)C)c(=O)n1Cc1ccc2c(c1)OCO2)c1ccc(Cl)cc1 | 27 nM | 2.1 min |  |  |
| Cc1ccc(=O)n(-c2ccccc2)c1 |  |  |  | Activity (Rattus norvegicus [3]): Active; Activity (Rattus norvegicus [4]): Active; Activity (Rattus norvegicus [5]): Active; Activity (Rattus norvegicus [6]): Active; Activity (Rattus norvegicus [7]): Active; Activity (Rattus norvegicus [8]): Active; Activity (Rattus norvegicus [9]): Active; Activity (Rattus norvegicus [10]): Active |
| CC(C)(C)n1ncc2c(=O)n(Cc3ccc(F)cc3)c(N[C@@H]3CCc4ccccc43)nc21 |  |  | 54% |  |
| CC(C)(C)n1ncc2c(=O)n(Cc3ccc(F)cc3)c(N[C@H]3CCc4ccccc43)nc21 |  |  | 37% |  |
| C[C@@H](Nc1nc2c(cnn2C2CCCC2)c(=O)n1Cc1ccccc1)c1ccc(Cl)cc1 | 4.7 nM | 0.5 min |  | IC50 [12]: 23 nM; IC50 [13]: > 10000 nM |
| C[C@@H](Nc1nc2c(cnn2C2CCCC2)c(=O)[nH]1)c1ccc(Cl)cc1 |  |  |  | IC50 [12]: 80 nM |
| CC(C)n1ncc2c(=O)n(Cc3ccncc3)c(N[C@H](C)c3ccc(Cl)cc3)nc21 |  |  | 39% |  |
| CC(C)n1ncc2c(=O)n(Cc3ccc4c(c3)OCO4)c(N[C@H](C)c3ccc(Cl)cc3)nc21 | 20 nM | 1.6 min |  |  |
| C[C@@H](Nc1nc2c(cnn2C(C)(C)C)c(=O)n1Cc1ccccc1)c1ccc(Cl)cc1 | 1.5 nM | 8.2 min |  |  |
| C[C@@H](Nc1nc2c(cnn2C2CCCC2)c(=O)n1C)c1ccc(Cl)cc1 | 258 nM |  |  |  |
| CC1c2ccccc2CCN1c1nc2c(cnn2C(C)(C)C)c(=O)n1Cc1ccc(F)cc1 (stereo not given) |  |  | 16% |  |
| C[C@H](Nc1nc2c(cnn2C(C)(C)C)c(=O)n1Cc1ccccc1)c1ccc(F)cc1 | 245 nM |  |  |  |
| CC(C)Cn1c(N[C@H](C)c2ccc(Cl)cc2)nc2c(cnn2C2CCCC2)c1=O |  |  | 5% |  |
| CC(C)n1ncc2c(=O)n(Cc3ccsc3)c(N[C@H](C)c3ccc(Cl)cc3)nc21 |  |  | 47% |  |
| C[C@H](Nc1nc2c(cnn2C(C)(C)C)c(=O)n1Cc1ccccc1)c1ccc(Cl)cc1 | 157 nM |  |  |  |
| CCn1c(N[C@H](C)c2ccc(Cl)cc2)nc2c(cnn2C2CCCC2)c1=O |  |  | 13% |  |
| C[C@@H](Nc1nc2c(cnn2C(C)(C)C)c(=O)n1Cc1ccccc1)c1ccc(F)cc1 | 2.6 nM |  |  |  |
